Drawing on US20250257062A1, “GLP-1R Agonist and Therapeutic Method Thereof” (Ascletis Pharma (China) Co., Limited, priority 2023, published 2025), this text covers EC50, Cmax and AUC(0-t) for 3 compounds.

The target of one series is hGLP-1R (Homo sapiens (Human), UniProt P43220). Nature of the series: hGLP-1R cAMP assay (agonist cAMP stimulation, Flp-In-293-GLP1R cells). The class given is cell-based. The following applies: 30 min at 37° C. The method, then: hGLP-1R cAMP Assay • 1. Cell line and reagent preparation • 1) Cell line: Flp-In-293-GLP1R • 2) Medium: DMEM+10% FBS+1×Penicillin-Streptomycin+200 μg/mL HB • 3) Test buffer: 1×HBSS+20 mM HEPES+0.1% BSA+500 μM IBMX • 2. Agonist test • a) Flpin-293-GLP1R cells were incubated in a 384-well assay plate (6007680-50, PE) using complete medium with 2,000 cells per well. • b) Prepared a 4× […] working solution with assay buffer. • c) Added 5 μL of 4× Compound Working Solution to the cell plate and incubated at 37° C. for 30 minutes. • d) Diluted Eu-cAMP tracer (1/50) with lysis buffer and added 10 μl/well to the assay plate. • e) Diluted Ulight-anti-cAMP (1/150) with lysis buffer and added 10 μl/well to the assay plate. • f) Incubated at constant temperature for 1 hour. • g) Read the plate on Envision 2105 plate reader at […]. • 3. Data Analysis • 3.1 The formula for calculating % Activity was as follows
hGLP-1R, sequence (P43220 24-463): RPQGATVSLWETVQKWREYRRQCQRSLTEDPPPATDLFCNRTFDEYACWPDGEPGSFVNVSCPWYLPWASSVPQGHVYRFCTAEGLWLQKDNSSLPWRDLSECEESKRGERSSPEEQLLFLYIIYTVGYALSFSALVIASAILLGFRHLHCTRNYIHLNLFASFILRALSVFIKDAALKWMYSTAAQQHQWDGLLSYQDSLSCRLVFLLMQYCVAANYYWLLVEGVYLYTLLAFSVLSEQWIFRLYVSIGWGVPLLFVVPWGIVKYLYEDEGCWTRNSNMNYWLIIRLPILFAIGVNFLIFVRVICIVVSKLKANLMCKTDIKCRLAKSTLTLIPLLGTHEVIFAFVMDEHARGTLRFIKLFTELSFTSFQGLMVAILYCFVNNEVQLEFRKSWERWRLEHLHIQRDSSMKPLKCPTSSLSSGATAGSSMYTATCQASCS
[formula] • 3.2 Calculate EC50 and plot the effect-dose curve for cmpds:
[formula] • X: logarithm of agonist concentration; Y: percentage activity.

Series [1] can be described thus: Single-dose oral administration pharmacokinetic study in SD rats. The class given is in vivo. As to conditions: Sprague-Dawley, rat, 5 mg/kg, plasma; for Cmax: male SD rats; for AUC(0-t): male, po, exposure over 0-24 hours. The method, then:
Single-dose oral administration pharmacokinetic (PK) studies in Sprague-Dawley (SD) rats Pharmacokinetic (PK) studies after a single-dose oral administration for compounds.
Protocol: Animals: Male Sprague-Dawley (SD) rats; Solvent: Solutol: PEG400: Tween80: Saline=10:40:2:48 (v/v/v/v); Dose: 5 mg/kg; Dosing concentration: 0.5 mg/mL in the solvent; Dosing volume: 10 mL/kg. Sample Collection: At each time point, approximately 0.15 mL of blood was drawn from the jugular vein sinus, and the collected whole blood was placed in an anticoagulant tube containing EDTA-K2. After collecting blood samples, they were processed with protein precipitation and then analyzed by LC-MS/MS.

The term EC50 denotes the concentration at which the effect is half-maximal. As usually defined, the Cmax is the highest concentration seen after dosing. Broadly, the AUC(0-t) is exposure summed from dosing to a finite time, without extrapolation to infinity. Lower therefore signals low exposure. Compound `C[C@H]1c2c(nn(-c3ccc(F)c(C4CC4)c3)c2-n2ccn(-c3ccc4c(cnn4C4CC4)c3F)c2=O)CCN1C(=O)c1cc2cc(C3CCOCC3)ccc2n1[C@@]1(c2noc(=O)[nH]2)C[C@@H]1C` [Compound 33] displayed an EC50 on hGLP-1R of 20 pM. Moreover, in series [1], the Cmax was 5610 ng/mL and the exposure AUC(0-t) was 71200 ng·h/mL.

In turn, `C[C@H]1c2c(nn(-c3ccc(F)c4c3CCC4)c2-n2ccn(-c3ccc4c(cnn4C4CC4)c3F)c2=O)CCN1C(=O)c1cc2cc(C3CCOCC3)ccc2n1[C@@]1(c2noc(=O)[nH]2)C[C@@H]1C` [Compound 45] had an EC50 on hGLP-1R of 15 pM. In series [1], this compound had a Cmax of 3210 ng/mL and an AUC(0-t) of 29600 ng·h/mL.

`C[C@H]1c2c(nn(-c3ccc(F)c(C4CC4)c3)c2-n2ccn(-c3ccc(CP(C)(C)=O)cc3)c2=O)CCN1C(=O)c1cc2cc(C3CCOCC3)ccc2n1[C@@]1(c2noc(=O)[nH]2)C[C@@H]1C` [Compound 51] had an EC50 at hGLP-1R of 28 pM.
